Source: US7309584B2, “Mutations of the MDR1 P-glycoprotein that improves its ability to confer resistance to chemotherapeutic drugs” (The Board of Trustees of the University of Illinois, priority 2000, dated 2007)

Legend:
[1] = test system: NIH 3T3 cells; test: clonogenic assays for drug resistance of NIH 3T3 cells transduced with MDR1 constructs; assay type: cell-based; conditions: for doxorubicin resistance relative to the LMDR1-G185V construct: FIG. 5B, 6B; for taxol resistance relative to the LMDR1-G185V construct: FIG. 6E; for vinblastine resistance relative to the LMDR1-G185V construct: FIG. 6D; for etoposide resistance relative to the LMDR1-G185V construct / fold increase in etoposide resistance relative to the LMDR1-G185V construct: FIG. 5A; for etoposide resistance relative to the LMDR1-G185V construct: 6A; for colchicine resistance relative to the LMDR1-G185V construct: FIG. 5C, 6C; for fold increase in doxorubicin resistance relative to the LMDR1-G185V construct: transduced NIH 3T3 cells, Table II; for fold increase in etoposide resistance relative to the LMDR1-G185V construct: transduced NIH 3T3 cells sorted for similar P-glycoprotein levels; for colchicine resistance relative to cells transduced with wild-type MDR1: FIG. 4B; for doxorubicin resistance relative to cells transduced with wild-type MDR1: FIG. 4C; for etoposide resistance relative to cells transduced with wild-type MDR1: FIG. 4A; for taxol resistance relative to cells transduced with wild-type MDR1: FIG. 4E; for vinblastine resistance relative to cells transduced with wild-type MDR1: FIG. 4D
From the text: FIGS. 4A through 4E illustrate the results of clonogenic assays for resistance to etoposide (panel A), colchicine (panel B), doxorubicin (panel C), vinblastine (panel D), and taxol (panel E) for NIH 3T3 cells transduced with LXSN (closed squares), wild-type MDR1 (closed circles), MDR1-G185V (open circles), MDR1-I186N (closed triangles), or MDR1-G185V/I186N (open triangles);
FIGS. 5A through 5C illustrate the results of clonogenic assays for resistance to etoposide (panel A), doxorubicin (panel B), and colchicine (panel C) for NIH 3T3 cells transduced with LMDR1-G185V (open circles), LMDR1-G185V-EK2 (closed triangles), LMDR1-G185V-EK3 (open triangles), or LMDR1-G185V-EK5 (closed diamonds);
FIGS. 6A through 6E illustrate the results of clonogenic assays for resistance to etoposide (panel A), doxorubicin (panel B), colchicine (panel C), vinblastine (panel D), and taxol (panel E) for NIH 3T3 cells transduced with LMDR1-G185V (closed circles), LMDR1-G185V-L56F (open circles), LMDR1-G185V-I190F/M197F (closed triangles), LMDR1-G185V-G763W (open triangles), or LMDR1-G185V-G844Q (closed squares).
Retroviral vectors carrying LXSN (negative control carrying the neomycin/G418 resistance gene), wild-type MDR1, MDR1-G185V, MDR1-I186N, or MDR1-G185V/I186N were individually transduced into NIH 3T3 cells. Populations transduced with MDR1 containing vectors were stained with the P-glycoprotein-specific monoclonal antibody MRK16, and then sorted to obtain cell populations expressing a similar level of P-glycoprotein.
NIH 3T3 cells were transduced with the LMDR1-G185V, LMDR1-G185V-EK2, LMDR1-G185V-EK3, or LMDR1-G185V-EK5 constructs, and the transduced cells were then sorted by FACS to generate pure populations of P-glycoprotein positive cells having similar levels of P-glycoprotein. Following sorting, the cell populations were analyzed for their drug resistance.
To investigate the mutants 8-A4, 5-C3, 2-B2, and 2-B1, having mutations in one of the transmembrane domains, MDR1-G185V cDNA was modified by site-directed mutagenesis to create the following constructs: LMDR1-G185V-L56F (leucine to phenylalanine mutation at residue 56), LMDR1-G185V-I190F/M197F (isoleucine to phenylalanine mutation at amino acid residue 190 and methionine to phenylalanine mutation at residue 197), LMDR1-G185V-G763W (glycine to tryptophan mutation at residue 763), and LMDR1-G185V-G844Q (glycine to glutamine mutation at residue 844). NIH 3T3 cells were transduced with either the LMDR1-G185V construct or one of the transmembrane mutant constructs, and the transduced cells were then sorted by FACS to generate pure populations of P-glycoprotein positive cells having similar levels of P-glycoprotein. Following sorting, the cell populations were analyzed for their drug resistance.

[2] = test system: NIH 3T3 cells; test: etoposide resistance / survival in etoposide of NIH 3T3 cells transduced with rescued MDR1-G185V mutants; assay type: cell-based; conditions: mutant fragments recloned into LMDR1-G185V, similar MDR1 expression
Description: Mutant MDR1-G185V cDNA isolated from eleven clonal lines was tested for the ability to confer elevated resistance to etoposide as compared to unmutagenized MDR1-G185V. Fragments of MDR1 cDNA containing mutations were first excised from the MDR1 cDNA using restriction endonucleases that recognize appropriate sites flanking the mutation, and then the fragments were recloned into the parental LMDR1-G185V vector. Naïve NIH 3T3 cells were individually transduced with the eleven LMDR1-G185V mutants, wild-type LMDR1-G185V, or LXSN, and then analyzed by FACS for MDR1 expression. […] The cell populations were then assayed for etoposide resistance.
An array selection strategy was employed to isolate additional MDR1 mutants conferring hyper-resistance to etoposide from the cells transduced with Mut II and selected in 10 μg/mL etoposide, as described in Example 1 (this selection scheme is shown in FIG. 1C and in FIG. 2). The 131 clonal lines from Example 1 were divided into four pools. MDR1 cDNA was recovered by PCR from each of the four pools, recloned back into LXSN, and used to transform bacterial cells to generate four MDR1 mutant libraries. These libraries were plated; individual bacterial colonies were picked and tested by array analysis. […]

| Substance | doxorubicin resistance relative to the LMDR1-G185V construct [1] | taxol resistance relative to the LMDR1-G185V construct [1] | vinblastine resistance relative to the LMDR1-G185V construct [1] | colchicine resistance relative to the LMDR1-G185V construct [1] | colchicine resistance relative to cells transduced with wild-type MDR1 [1] | doxorubicin resistance relative to cells transduced with wild-type MDR1 [1] | etoposide resistance relative to cells transduced with wild-type MDR1 [1] | other results |
| --- | --- | --- | --- | --- | --- | --- | --- | --- |
| G763W: MDR1-G185V construct with glycine to tryptophan mutation at residue 763 | moderate increases in doxorubicin resistance | no effect on taxol resistance | only a moderate increase in vinblastine resistance |  |  |  |  |  |
| I190F/M197F: MDR1-G185V construct with isoleucine to phenylalanine at residue 190 and methionine to phenylalanine at residue 197 | moderate increases in doxorubicin resistance | significant increase in taxol resistance | increased vinblastine resistance |  |  |  |  | etoposide resistance relative to the LMDR1-G185V construct [1]: the greatest resistance |
| L56F: MDR1-G185V construct with leucine to phenylalanine mutation at residue 56 | very strong resistance to doxorubicin | decreased taxol resistance | decreased vinblastine resistance | increased colchicine resistance |  |  |  |  |
| LMDR1-G185V-EK2: MDR1-G185V construct with glutamic acid to lysine substitutions at positions 634 and 636 | increase doxorubicin resistance |  |  | decrease colchicine resistance |  |  |  | fold increase in doxorubicin resistance relative to the LMDR1-G185V construct [1]: almost two-fold increase; fold increase in etoposide resistance relative to the LMDR1-G185V construct [1]: 1.4 fold |
| LMDR1-G185V-EK3: MDR1-G185V construct with glutamic acid to lysine substitutions at positions 643, 647, and 652 | increase doxorubicin resistance |  |  | decrease colchicine resistance |  |  |  | fold increase in doxorubicin resistance relative to the LMDR1-G185V construct [1]: nearly a four-fold increase; fold increase in etoposide resistance relative to the LMDR1-G185V construct [1]: 1.6 fold |
| LMDR1-G185V-EK5: MDR1-G185V construct with glutamic acid to lysine substitutions at positions 634, 636, 643, 647 and 652 |  |  |  | the greatest decrease in colchicine resistance |  |  |  | etoposide resistance relative to the LMDR1-G185V construct [1]: the effect of the double and triple lysine mutants was not additive |
| MDR1-G185V/I186N: mutant human P-glycoprotein having both G185V and I186N substitutions |  |  |  |  | indistinguishable from that obtained for cells transduced with the MDR1-G185V construct | an even higher level of doxorubicin resistance | higher level of etoposide resistance than cells transduced with either the MDR1-G185V or MDR1-I186N constructs |  |
| MDR1-G185V: human P-glycoprotein having a glycine to valine substitution at position 185 (SEQ ID NO: 3) [reference compound] |  |  |  |  | an even higher level of colchicine resistance | doxorubicin resistance was enhanced | increase etoposide resistance | taxol resistance relative to cells transduced with wild-type MDR1 [1]: decrease resistance levels to both of these drugs; vinblastine resistance relative to cells transduced with wild-type MDR1 [1]: decrease resistance levels to both of these drugs |
| MDR1-I186N: mutant human P-glycoprotein having an asparagine substitution at position 186 (SEQ ID NO: 4) |  |  |  |  | increase colchicine resistance | doxorubicin resistance was enhanced | increase etoposide resistance to a similar degree as the G185V substitution | taxol resistance relative to cells transduced with wild-type MDR1 [1]: increase resistance to both of these drugs; vinblastine resistance relative to cells transduced with wild-type MDR1 [1]: increase resistance to both of these drugs; etoposide resistance as compared to unmutagenized MDR1-G185V [2]: increased resistance to etoposide |
